Data set [1] can be described thus: Microsomal stability. It counts as in vitro ADME, dog. The settings on record: for Stability (% without microsomes) Dog liver microsomes NADPH + / Stability (% without microsomes) Dog liver microsomes NADPH –: 1 μM inhibitor, microsomes 1 mg/mL, 37°C, 30 min, compound remaining, average ± SD (n = 3); for Stability (% without microsomes) Dog liver microsomes NADPH +: with NADPH; for metabolism in dog liver microsomes (in words): in the presence of NADPH. The procedure:
(§1) The stability of the sEH inhibitors was determined using liver microsomes as described ([24]). […] After 30 min at 37°C, the reaction was stopped by the addition of one volume of methanol containing CUDA (200 nM) as surrogate. The amount of remaining inhibitor was determined by LC/MS/MS. The stability is reported as a percentage of compound remaining after 30 min in these conditions.
(§2) Mass spectrometry analyses were performed using a Waters Quattro Premier triple quadrupole tandem mass spectrometer (Micromass, Manchester, UK) interfaced to an electrospray ionization (ESI) source. The MS was coupled with a Waters Acquity UPLC (Waters, Milford, MA, USA). A Varian Pursuit5 C18 RP HPLC column (150 mm × 2.1 mm, particle size 5 μm) was used to separate the analytes. […] The source and the desolvation temperatures were set at 120 and 300°C, respectively. […] Dwell time was set to 0.1 s.
(Liver microsomes are a subcellular fraction often used to study metabolism.)

Data set [2] can be described thus: Microsomal stability. The format is in vitro ADME, cat. The settings on record: for Stability (% without microsomes) Cat liver microsomes NADPH + / Stability (% without microsomes) Cat liver microsomes NADPH –: 1 μM inhibitor, microsomes 1 mg/mL, 37°C, 30 min, compound remaining, average ± SD (n = 3); for Stability (% without microsomes) Cat liver microsomes NADPH +: with NADPH; for metabolism in cat liver microsomes (in words): in the presence of NADPH. The method, then: as §1, §2

Data set [3] has as its target T1, sEH activity from liver cytosol of Pig (Sus scrofa, UniProt Q6Q2C2).
T1 construct: The radioactive fluorescent assay was used with the liver crude extracts; from tissue; host or cells: pig liver cytosol (100,000 g supernatant)
T1 sequence (Q6Q2C2 1-555): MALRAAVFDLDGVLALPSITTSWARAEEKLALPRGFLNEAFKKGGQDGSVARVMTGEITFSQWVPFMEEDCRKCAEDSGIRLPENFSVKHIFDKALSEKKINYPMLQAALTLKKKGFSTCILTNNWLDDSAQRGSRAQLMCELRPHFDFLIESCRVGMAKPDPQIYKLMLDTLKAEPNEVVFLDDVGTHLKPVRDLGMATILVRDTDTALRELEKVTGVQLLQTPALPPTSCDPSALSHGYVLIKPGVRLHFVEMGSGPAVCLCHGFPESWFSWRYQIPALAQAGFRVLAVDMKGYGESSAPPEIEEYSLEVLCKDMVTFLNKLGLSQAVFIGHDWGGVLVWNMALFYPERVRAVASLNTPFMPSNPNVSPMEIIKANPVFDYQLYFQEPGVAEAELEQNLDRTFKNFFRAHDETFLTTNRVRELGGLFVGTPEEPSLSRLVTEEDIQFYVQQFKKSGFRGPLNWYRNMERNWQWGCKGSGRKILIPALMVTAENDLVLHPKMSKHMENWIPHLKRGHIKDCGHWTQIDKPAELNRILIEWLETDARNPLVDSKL
In words: sEH inhibition potency (IC50), radioactive assay with [3H]t-DPPO, liver cytosol. The format is biochemical. The text has this: (§3) Fresh liver tissues samples (5–30 g) were collected promptly after death from healthy adult cat, dog and horse euthanized for reasons unrelated to this study, and whose bodies were given to science by the owners in line with federal regulations and protocol approved by the Institutional Animal Care and Use Committee at University of California Davis. Similarly, tissues from the other animals tested herein were collected from healthy animals immediately after being slaughter at the university abattoir. Because no animals were directly used or killed for this study, sample collections were exempted from approval by the Institutional Animal Care and Use Committee of the University of California Davis and Michigan State University. […] The tissues were flash-frozen in liquid nitrogen following removal, and then kept at −80°C until used. After thawing on ice, the samples were homogenized in chilled sodium phosphate buffer (20 mM pH 7.4) containing 5 mM EDTA, 1 mM DTT and 1 mM PMSF (tissue weight:buffer volume ratio 1:4). These homogenates were centrifuged at 100,000 g for 60 min at 4°C. The supernatant (the cytosolic fraction) was separated from the pellet, aliquoted and flash frozen in liquid nitrogen, then kept frozen at −80°C until usage.
(§4) The IC50 values reported herein were determined using either a fluorescent based assay (CMNPC as substrate) for purified enzyme preparations or a radioactive based assay ([^3H]t-DPPO as substrate) for crude enzyme preparations ([20]). The fluorescent assay was used with the purified proteins. […] The substrate (CMNPC) was then added ([S]final = 5 μM). […] The radioactive […] assay was used with the liver crude extracts. Extracts were incubated with inhibitors ([I]final = 1–1,000 nM) at 30° C for 5 min in sodium phosphate buffer (pH 7.4) containing 0.1 mg/mL of BSA and 1% of DMSO, prior to substrate introduction ([^3H]t-DPPO [S]final: 50 μM; ~12,000 dpm/assay). The enzymes were incubated at 30°C for 10 min, and the reaction was quenched by the addition of 60 μL methanol and 200 μL isooctane, which extracts the remaining epoxide from the aqueous phase. […] Assays were performed in triplicate.

Data set [4] concerns the target T2, sEH activity from liver cytosol of Rat (Rattus norvegicus, UniProt P80299).
T2 construct: The radioactive fluorescent assay was used with the liver crude extracts; from tissue; host or cells: rat liver cytosol (100,000 g supernatant)
T2 sequence (P80299 1-554): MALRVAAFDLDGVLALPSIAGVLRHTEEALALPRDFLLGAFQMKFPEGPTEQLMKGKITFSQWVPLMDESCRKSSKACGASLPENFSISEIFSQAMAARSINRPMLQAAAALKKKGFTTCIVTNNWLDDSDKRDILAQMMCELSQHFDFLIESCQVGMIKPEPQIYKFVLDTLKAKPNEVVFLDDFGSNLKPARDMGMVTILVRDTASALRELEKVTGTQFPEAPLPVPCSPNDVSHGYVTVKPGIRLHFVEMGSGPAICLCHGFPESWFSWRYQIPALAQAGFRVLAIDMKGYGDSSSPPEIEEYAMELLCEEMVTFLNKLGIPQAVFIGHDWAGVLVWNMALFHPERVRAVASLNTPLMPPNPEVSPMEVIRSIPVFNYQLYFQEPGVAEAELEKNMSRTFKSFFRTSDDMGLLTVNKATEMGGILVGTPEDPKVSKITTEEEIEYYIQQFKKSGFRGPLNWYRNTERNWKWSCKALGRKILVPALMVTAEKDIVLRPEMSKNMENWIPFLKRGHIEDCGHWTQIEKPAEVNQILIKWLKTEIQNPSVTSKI
The description is as above. The format is biochemical.
Source text: as §3, §4

The nature of data set [5]: Microsomal stability. The format is in vitro ADME, horse. The following applies: for Stability (% without microsomes) Horse liver microsomes NADPH + / Stability (% without microsomes) Horse liver microsomes NADPH –: 1 μM inhibitor, microsomes 1 mg/mL, 37°C, 30 min, compound remaining, average ± SD (n = 3); for Stability (% without microsomes) Horse liver microsomes NADPH +: with NADPH; for metabolism in horse liver microsomes (in words): in the presence of NADPH. The method, then:
as §1, §2

The mark [6] stands for this setting: liver cytosol, [3H]t-DPPO ([S]final = 5 μM) as substrate, read-out: IC50 (nM) Pig.
The mark [7] stands for this setting: liver cytosol, [3H]t-DPPO ([S]final = 5 μM) as substrate, read-out: IC50 (nM) Rat.

Broadly, the IC50 is the midpoint of a concentration-inhibition curve.

Each structure is given as a SMILES string. Read-outs that look alike come from different tables or passages of the source.

In the case of `N#CNC(=O)CCCCCCCCCCCNC(=O)NC12CC3CC(CC(C3)C1)C2` [1,845], in “Microsomal stability [1]”, the “Stability (% without microsomes) Dog liver microsomes NADPH +” value turned out to be 34 ± 11%, the “Stability (% without microsomes) Dog liver microsomes NADPH –” value turned out to be 84 ± 3% and the “metabolism in dog liver microsomes (in words)” value is “further metabolized”. Moreover, the “stability in dog liver microsomes (in words)” value in the data set “Microsomal stability [1]” (in the absence of NADPH) is given as “not stable”. Besides, in “Microsomal stability [2]”, the “Stability (% without microsomes) Cat liver microsomes NADPH +” value is on record as 9 ± 2% and the “Stability (% without microsomes) Cat liver microsomes NADPH –” value worked out at 5 ± 1%. Also, the “stability in cat liver microsomes (in words)” value in “Microsomal stability [2]” (in the absence of NADPH) was “not stable”. Further, the IC50 in data set [3] (setting [6]) was found to be 81 nM. In addition, the IC50 in data set [4] (setting [7]) stood at 12 nM. In the data set “Microsomal stability [5]”, the “Stability (% without microsomes) Horse liver microsomes NADPH +” value worked out at 28 ± 9%, the “Stability (% without microsomes) Horse liver microsomes NADPH –” value is 67 ± 3% and the “metabolism in horse liver microsomes (in words)” value is recorded as “further metabolized”. The “stability in horse liver microsomes (in words)” value in “Microsomal stability [5]” (in the absence of NADPH) is recorded as “not stable”.
`O=C(Nc1ccc(OC(F)(F)F)cc1)N[C@H]1CC[C@H](Oc2ccc(C(=O)O)cc2)CC1` [1,728, trans-4-{4-[3-(4-trifluoromethoxy-phenyl)-ureido]-cyclohexyloxy}-benzoic acid]: in the data set “Microsomal stability [1]”, the “Stability (% without microsomes) Dog liver microsomes NADPH +” value came to 100 ± 3%, the “Stability (% without microsomes) Dog liver microsomes NADPH –” value was 104 ± 3% and the “metabolism in dog liver microsomes (in words)” value is listed as “most stable”. Moreover, in “Microsomal stability [2]”, the “Stability (% without microsomes) Cat liver microsomes NADPH +” value is listed as 101 ± 3%, the “Stability (% without microsomes) Cat liver microsomes NADPH –” value is 103 ± 8% and the “metabolism in cat liver microsomes (in words)” value is reported as “most stable”. In addition, in data set [3], the IC50 amounted to 9 nM. The IC50 in data set [4] was 6 nM. Moreover, in “Microsomal stability [5]”, the “Stability (% without microsomes) Horse liver microsomes NADPH +” value was 89 ± 3%, the “Stability (% without microsomes) Horse liver microsomes NADPH –” value is recorded as 108 ± 10% and the “metabolism in horse liver microsomes (in words)” value is “most stable”.
Consider `O=C(NCCCCOc1ccc(F)cc1)NC12CC3CC(CC(C3)C1)C2` [1,707], for which, in “Microsomal stability [1]”, the “Stability (% without microsomes) Dog liver microsomes NADPH +” value amounted to 8 ± 3%, the “Stability (% without microsomes) Dog liver microsomes NADPH –” value is given as 87 ± 17% and the “metabolism in dog liver microsomes (in words)” value is on record as “metabolized rapidly”. For the same molecule, in the data set “Microsomal stability [2]”, the “Stability (% without microsomes) Cat liver microsomes NADPH +” value is listed as 5 ± 1%, the “Stability (% without microsomes) Cat liver microsomes NADPH –” value amounted to 101 ± 14% and the “metabolism in cat liver microsomes (in words)” value is “metabolized rapidly”. Also, the IC50 in data set [3] (setting [6]) stood at 6 nM. Moreover, the IC50 in data set [4] (setting [7]) is 7 nM. In addition, in the data set “Microsomal stability [5]”, the “Stability (% without microsomes) Horse liver microsomes NADPH +” value was 1.6 ± 0.2% and the “metabolism in horse liver microsomes (in words)” value is listed as “metabolized rapidly”.

Values taken from paper PMC7479175, “Selection of Potent Inhibitors of Soluble Epoxide Hydrolase for Usage in Veterinary Medicine” (Frontiers in Veterinary Science, 2020).
